Experimental data published in US12281118B2, “Nitrogen-containing fused heterocyclic SHP2 inhibitor compound, preparation method, and use” (SHANGHAI RINGENE BIOPHARMA CO., LTD., priority 2018, dated 2025).

Key:
Format in all cases: in vivo
[1] = system: MV 4-11/KYSE520/NCI-H358 tumor cell xenografts; experiment: Xenograft study in nude mice: tolerance and westernblot assay of tumor tissues
Excerpt: (§1) Experimental method: 1) Culturing MV 4-11/KYSE520/NCI-H358 cells in a culture medium containing 10% fetal bovine serum. Harvesting tumor cells at an exponential growth phase, and resuspending in PBS to suitable concentrations for subcutaneous tumor inoculation in nude mice. 2) Subcutaneously inoculating 2-8×10^7 tumor cells at the right back of a mouse, and resuspending the cells in PBS and matrigel (1:1); observing tumor growth regularly, and randomizing mice for administration based on tumor size and mouse body weight when tumors grow to a mean volume of ˜120 mm^3-[…]. 3) Defining the day of tumor cell inoculation as Day 0. Prior to the start of dosing, weighing all animals and measuring the tumor volume with a vernier caliper. 3) Administering orally compound of examples (prepared with water for injection containing 1% Tween80 to a desired concentration for use) at a given dose for three consecutive weeks, and giving an equal amount of solvent animals in a solvent control group. Measuring diameters of the xenograft twice a week throughout the experiment, and weighing the mice were at the same time.

[2] = system: KYSE520 tumor cell xenograft; experiment: Growth inhibition of xenograft in nude mice; settings: orally, once daily, for 21 consecutive days
Excerpt: as §1
(§2) The calculation formula of tumor volume (TV) is: TV=½×a×b^2, wherein a and b represent length and width, respectively. The relative tumor volume (RTV) is calculated based on the measured results using the formula: RTV=Vt/V0, wherein V0 is the tumor volume measured at the time of dosing in separate cages (i.e., Day 0) and Vt is the tumor volume at each measurement. The anti-tumor activity is evaluated by the following measures: 1) relative tumor proliferation rate T/C (%), which is calculated by the following formula: T/C (%)=(TRTV/CRTV)×100%, wherein TRTV: RTV of ae treatment group; CRTV: RTV of a negative control group; 2) inhibition rate of tumor volume growth GI %, which is calculated by the following formula: GI %=[1−(TVt−TV0)/(CVt−[…])]×100%, wherein TVt is the tumor volume at each measurement in the treatment group; TV0 is the tumor volume obtained at the time of dosing in separate cages in the treatment group; CVt is the tumor volume at each measurement in the control group; CV0 is the tumor volume obtained at the time of dosing in separate cages in the control group (specific data are shown in Table 4).

[3] = system: NCI-H358 tumor cell xenograft; experiment: Growth inhibition of xenograft in nude mice; settings: orally, once daily, for 21 consecutive days
Excerpt: as §1, §2

[4] = system: MV 4-11 tumor cell xenograft; experiment: Growth inhibition of xenograft in nude mice; settings: orally, once daily, for 21 consecutive days
Excerpt: as §1, §2

## Cc1nc(N2CCC3(CC2)Cc2ccccc2[C@H]3N)n2ccnc2c1Sc1ccnc(N)c1Cl [Example 1, (S)-1′-(8-((2-amino-3-chloropyridin-4-yl)thio)-7-methylimidazo [1,2-c]pyrimidin-5-yl)-1,3-dihydrospiro [indene-2,4′-piperidine]-1-amine]
[1]; 24 hours after the last dosing
  inhibition of the signaling pathway in tumor tissues (westernblot): can still inhibit the signaling pathway in tumor tissues continuously 24 hours after the last dosing
[1]; nude mice with xenografts, oral dosing for three weeks
  tolerance of the experimental animals: well tolerated
[2]; 2 mg/kg
  T/C: 30%
[2]; 6 mg/kg
  T/C: 18%
[3]; 0.8 mg/kg
  T/C: 39%
[3]; 2.5 mg/kg
  T/C: 13%
[4]; 2 mg/kg
  T/C: 28%
[4]; 5 mg/kg
  T/C: 3.0%
